Test results from article PMC10794345, “Analysis of vascular disruption in zebrafish embryos as an endpoint to predict developmental toxicity” (Archives of Toxicology, 2023).

Columns and labels:
[1] = system: zebrafish embryos, transgenic line Tg(kdr:EGFP); assay: Number of ISVs by video subtraction in Tg(kdr:EGFP) zebrafish embryos; assay type: in vivo, zebrafish (D. rerio)
Experimental: (§1) Fertilized and normally developed embryos were selected according to Kimmel et al. ([1995]) with a dissection microscope (Olympus SZx7-ILLT) at 1 hpf. Depending on experiment, exposure was started within 2–3 h post-fertilization (16–128 cell stages) or at 24 hpf. Exposure was conducted in rectangular 96-well microplates (Clear Polystyrene, flat bottom, Uniplate, Whatman, GE Healthcare) covered by a lid with a test volume of 400 µL of exposure media. For each replicate one embryo per well and 16 wells per concentration were assessed. Experiments were performed with at least two replicates on independent days and breeding.
(§2) To determine the number of ISVs in the trunk region, high-resolution images of 96 hpf-old zebrafish embryos were recorded using a Leica DM6B-Z microscope (Leica, Wetzlar, Germany) attached to the VAST imaging system, and a camera (Leica DFC9000 sCMOS, objective: HC APO L U-V-I 20x/0.50 WATER UV). A series of 20 images with a frame rate of 20 images per second and a 2 × 2 pixel binning was recorded in autofocus mode for each embryo. For the Tg(kdr:EGFP) strain, one additional fluorescence image was obtained using a fluorescent filter set (emission wavelength 540 nm, excitation filter BP 450–490) and a camera exposure time of 129 ms and a 2. × 2 binning in autofocus mode.
A series of MATLAB scripts (Supplement File ‘Workflow 3.m’ and ‘Workflow 4.m’) was used to convert the image series into a video and to visualize the blood vessel by applying a video subtraction approach (Figure SI1). Briefly, each video frame was subtracted from the average image of the whole image sequence and converted to a binary image by applying a Gaussian blur (σ = 5) and a threshold of 0.025 to obtain optimal contrast in binary images. Subsequently, the sum of all binary images was calculated. Due to movement of the blood cells the subtraction approach removed all parts from the image which were not moving resulting in an image of the blood vessels. This binary image of the blood vessel network in the zebrafish embryo tail was then processed with the FishInspector annotation software (version 1.70). […] The number of ISVs was obtained by application of a KNIME workflow to FishInspector annotation files. Subsequently concentration–response analysis was conducted using a KNIME workflow. The coefficient of variation (CV) of controls was calculated for both the subtraction and the fluorescence-based method by dividing the standard deviation of individual embryos with the control mean: CVControl=SD/Mean.
Concentration–response curves were fitted for lethality, heart rate, morphological features as previously described (Teixidó et al. [2019], [2022]). The assessment of lethality and morphological features was based on the percentage of embryos affected. Therefore, morphological endpoints were dichotomized, i.e. feature metrics were converted to the percentage of embryos deviating from controls. An embryo was considered to deviate when it was outside 1.5-fold of the standard deviation range of the mean of the control group. The control mean was determined by pooling control embryos across all experiments (n = 160) (available at git.ufz.de). For heart rate and angiogenesis (number of ISVs) the analysis was based on normalized values, i.e. for each experiment the values of the treatment were divided by the control value. The experiments were designed to calculate effect concentrations based on modelled curve fits. […]

[2] = system: zebrafish embryos, transgenic line Tg(kdr:EGFP); assay: Number of ISVs by fluorescence imaging in Tg(kdr:EGFP) zebrafish embryos; assay type: in vivo, zebrafish (D. rerio); conditions: exposure 24–96 hpf, 0.31–10 µM
Experimental: as §1
as §2, with “mode. […]” for “mode.”

For CN(C)c1ccc(C=C2C(=O)Nc3ccccc32)cc1 [SU4312], the “EC10 (IC10) number of ISVs, subtraction image” value ([1]; Tg(kdr:EGFP), exposure 24–96 hpf, 0.31–10 µM) was 0.72 µM, the EC50 ([1]; Tg(kdr:EGFP), exposure 24–96 hpf, 0.31–10 µM, read-out: EC50 (IC50) number of ISVs, subtraction image) was 2980 nM and the EC50 ([1]; arterial ISVs only, subtraction method, ± 95% confidence where given, read-out: aISVs EC50) was 2580 ± 3120 nM. The EC50 ([1]; subtraction method, ± 95% confidence where given, read-out: all ISVs EC50 (combined assessment)) was 2980 nM, the EC50 ([1]; venous ISVs only, subtraction method, ± 95% confidence where given, read-out: vISVs EC50) was 750 ± 170 nM and the “EC10 (IC10) number of ISVs, fluorescent image” value [2] was 1.17 µM. It also gave an EC50 ([2]; read-out: EC50 number of ISVs, fluorescent image) of over 10 µM.
